Counter-ions that a name gives are not always drawn. Like-named read-outs stand apart in the source and are kept apart here.
Legend:
[1] = tested on: Mz-ChA-1 cholangiocarcinoma cells; assay: cells; details: Homo sapiens, combination with 50 µM β-caryophyllene
Experimental: (§2) To perform the assay, the cells were grown for 24 h into 96-well microplates (2 × 10^4 cells/well), then treated with the test substances and incubated according to the applied protocol schedule [26]. At the end of incubation, the cytotoxicity was measured by the 3-[4,5-dimethylthiazol-2-yl] -2,5-diphenyl tetrazolium bromide (MTT) assay, using an Epoch Microplate Spectrophotometer (BioTek, AHSI, Milan Italy). At least three biologic replicates, in which each concentration was tested in triplicate, were made. Comparing the number of viable cells in each treatment respect to the vehicle control allows to measure a cell viability reduction. The effect of the treatment was considered as cytotoxic when at least a 30% lowering of cell viability occurred [59].
(§3) In the single long-term schedule, confluence cells were exposed to the test substances for 24 h and 72 h (Figure S1), then the cytotoxicity was measured by the MTT assay. Under the metronomic treatment, the cells were subjected to a short and/or repeated exposure of 2 h to the test substances (Figure S2), as follow: 1) single treatment, the cells were treated for 2 h, then washed and incubated for 72 h; 2) two-repeated treatments, the cells were exposed to the test substances for 2 h, then washed and incubated for functional recovery for further 2 h. After recovering, the cells were further treated with the test substances for 2 h, washed and incubated for 72 h. Finally, the cytotoxicity was measured by the MTT assay as described above.
The type of interaction between β-caryophyllene and doxorubicin, i.e., synergy, additivity or antagonism, was evaluated by measuring three parameters: reversal ratio value (RR), combination index (CI) and isobolographic analysis (IB) [24].
(§4) RR represents the cytotoxicity enhancement ratio and allows to quantify the efficacy increase of a drug (A) in the presence of a chemosensitizing agent (B), by relating the IC50 of A alone (CA) and that of IC50 of its combination with B (CA+B).
CI gives a quantitative measure of the interaction and is calculated as follow: (CA,X/ICX,A) + (CB, X/ICX,B), in which CA,X and CB,X are the concentrations of A and B at the IC50 value of their combination, whereas ICX,A and ICX,B are the IC50 values of the substances alone. When the CI value was equal to, less or higher than 1, the interaction between test substances was evaluated as additivity, synergism and antagonism, respectively.
The isobolographic analysis, displaying the extent of the interaction between drug A and the potential chemosensitizer B, was obtained by a two-coordinate plot, wherein the IC50 concentrations of A and B were plotted on the x and y axes, corresponding to (CA, 0) and (C0, B), respectively. The substance concentrations used in the combination (CA+B) were placed in the same plot. A nonlinear regression analysis was carried out by GraphPad Prism™ 6.00 software, in order to connect the IC50 value of each drug alone and that of the combination, whereas the line connecting CA and CB represented an additive interaction. A synergism between A and B occurred when CA+B were located below the line, while the interaction was antagonistic when the values were above the line [60].

[2] = tested on: Mz-ChA-1 cholangiocarcinoma cells; assay: Annexin-V-Cy3/CFDA flow cytometry (apoptotic and viable cells); format: cell-based, human; details: for inhibition of viable cells (CF fluorescence): Mz-ChA-1, 2 h and 24 h, maximum
Experimental: (§1) Apoptosis extent was evaluated by Annexin-V staining (Annexin V Apoptosis detection kit, Santa Cruz Biotechnology, DBA, Milan, Italy), which is known to specifically binds phosphatidylserine, a […] which is normally embedded in the inner leaflet of plasma membrane and externalized during apoptosis, as a result of the membrane changes. Therefore, apoptotic cells can be directly detected through their staining with the fluorochrome-conjugated Annexin V. The analysis was performed by both fluorescence microscopy and flow cytometry in order to both visualize the event and to achieve a quick and accurate quantification of apoptotic cells.
For flow cytometry analysis, the cells (1 × 10^6 cells) were grown in 6-well plates, treated with β-caryophyllene (50 µM) and doxorubicin (20 µM), alone and in combination for the required time exposure, then collected by trypsinization and resuspended in PBS in the presence of the fluorochrome Annexin-V-Cy3 (4 μg/mL in cell suspension). In order to detect viable cells, the nonfluorescent probe carboxyfluorescein diacetate (CFDA; 2 μg/mL in cell suspension), hydrolyzed in living cells by esterases to its fluorescent carboxyfluorescein metabolite (CF), was included too. For each sample, the mean fluorescence of Annexin-V-Cy3 (excitation/emission at 543/570 nm, respectively) and CF (excitation/emission at 492/514 nm, respectively) in 50,000 cells was measured using a BD Accuri^TM C6 flow cytometer, FL-2 and FL-1 channels respectively (BD Biosciences, Milan, Italy). Although standard flow cytometry apoptosis assays use Annexin V-FITC, we chosen the conjugate with Cy3 in order to avoid the overlapping in the excitation wavelength of annexin V-FITC and CF, which could interfere with the analysis. Cells undergoing apoptosis were also sorted by their typical forward- and side scatter (FSC-SSC) pattern, i.e., increased SSC and decreased FSC, respect to the viable cells. Multiparameter analysis and gating of forward and side scatter as well as fluorescence detection were performed using a BD Accuri^TM C6 Software version 1.0.264.21 (BD Biosciences, Milan, Italy).

[3] = tested on: H69 noncancerous cholangiocytes; assay: MTT cytotoxicity and combination assay; format: cell-based; details: for IC50: combination with 50 µM β-caryophyllene; for cytotoxicity: H69, 100 μM
Experimental: as §2, §3, §4

[4] = tested on: γH2AX in Mz-ChA-1 cholangiocarcinoma cells; assay: Western blotting of phosphorylated H2AX (Ser139); format: cell-based, human; details: for increase in γH2AX levels compared the control: doxorubicin 20 µM
Experimental: (§5) To perform the analysis, the cells were seeded in 6-well plates, then subjected to the treatment with β-caryophyllene (50 µM) and doxorubicin (20 µM), alone and in combination, for the required time exposure, then harvested by centrifugation and washed in PBS. A lysis buffer, containing SDS (2% w/w), Tris-hydrochloride (20 mM; pH 7.4), urea (2 M), glycerol (10% w/w), sodium orthovanadate (2 mM), DTT (10 mM) and a protease inhibitors cocktail (1:100 dilution) was used to achieve the cell protein separation. The separated proteins were resolved by SDS-PAGE 10% TGX FastCast™ Acrylamide gel (BioRad, Segrate, Italy) and transferred on PVDF membranes (BioRad, Segrate, Italy) by using a Trans-Blot® Turbo™ Transfer System (BioRad, Segrate, Italy). The membranes were blocked with a 0.2% w/v I-block (Thermo Fisher Scientific, Rodano, Italy) in Tris-buffered saline containing 0.05% Tween-20 (TBS-T), then stained with the desired primary antibodies. […] After rinsing three times in TBS-T to remove unbound primary antibody, the membranes were incubated for an additional hour with the appropriate horseradish peroxidase- or alkaline phosphatase-conjugated secondary antibody (Jackson ImmunoResearch, Pero, Italy). […] Each experiment was performed at least in three replicates.

[5] = tested on: phospho(Tyr705)-STAT3 in Mz-ChA-1 cells; assay: Western blotting of phospho(Tyr705)-STAT3; format: cell-based, human; details: for increase of phospho(Tyr705)-STAT3 compared the control: β-caryophyllene 50 µM, doxorubicin 20 µM
Experimental: as §5

[6] = tested on: γH2AX in H69 noncancerous cholangiocytes; assay: Western blotting of phosphorylated H2AX (Ser139); format: cell-based; details: for increase of γH2AX with respect to control: doxorubicin 20 µM
Experimental: as §5

[7] = tested on: H69 noncancerous cholangiocytes; assay: Annexin-V-FITC fluorescence microscopy, semiquantitative; format: cell-based; details: H69, 24 h, β-caryophyllene 50 µM, doxorubicin 20 µM
Experimental: as §1

[8] = tested on: Mz-ChA-1 cholangiocarcinoma cells; assay: Cell cycle analysis (PI flow cytometry); format: cell-based, human; details: Mz-ChA-1, 24 h
Experimental: Analysis of cell cycle progression was performed by applying a one parameter flow cytometric method, in which cell cycle distribution was evaluated on the basis of DNA content. Briefly, after treatments, the harvested cells (about 1 × 10^6 cells) were fixed in ice cold 70% ethanol and stored for at least 2 h at 4 °C. Thereafter, the ethanol-suspended cells were separated by centrifugation, rinsed in PBS, then resuspended in a propidium iodide (PI) staining solution, containing 0.1% v/v Triton X-100, 10 μg/mL PI and 100 μg/mL DNase-free RNase A in PBS and stored at 4 °C in the dark for at least 30 min. For each sample, the mean fluorescence of PI (maximum excitation of PI bound to DNA at 536 nm; emission at 617 nm) in 50,000 cells was measured using a BD Accuri^TM C6 flow cytometer FL2 channel (BD Biosciences, Milan, Italy) and deconvolution of the DNA content frequency histograms, to estimate the proportions of cells in the respective phases of the cycle, was made by Modfit 4.1 software (Verity Software House, Topsham, ME, USA).

[9] = tested on: glutathione in H69 noncancerous cholangiocytes; assay: HPLC determination of intracellular GSH and GSSG; format: cell-based; details: H69, 24 h
Experimental: Intracellular levels of reduced (GSH) and oxidized (GSSG) glutathione were measured by HPLC-UV, as previously described. Briefly, after treatments with β-caryophyllene (50 µM) and doxorubicin (20 µM), the harvested cells (1 × 10^6 cells) were suspended in 10% ice-cold TCA and centrifuged for 15 min at 9000× g, then supernatant was collected and GSH and GSSG measured by HPLC with UV detection at 215 nm. The separation was achieved using a InfinityLab poroshell 120 EC-C18 column (3 × 150 mm, 2.7 μm) at a flow rate of 0.8 mL/min, using the following elution gradient: 0–3 min 100% A + 0% B, 3–10 min from 100% A to 100% B. The mobile phase A contained 0.1% trifluoroacetic acid in water, whereas mobile phase B was 0.1% trifluoroacetic acid in water/acetonitrile (93:7). Under our chromatographic conditions, retention times of GSH and GSSG were 2.58 min and 7.01 min, respectively.

[10] = tested on: ROS in Mz-ChA-1 cholangiocarcinoma cells; assay: Intracellular ROS determination (DCFH-DA); format: cell-based, human; details: β-caryophyllene 50 µM, doxorubicin 20 µM
Experimental: To perform the assay, the cells, seeded in 6-well plates (1 × 10^6 cells/well), were treated with the tested substances (β-caryophyllene, 50 µM; doxorubicin, 20 µM) for the required time exposure, then the ROS levels were measured in the pellets by the 2,7-dichlorofluorescein diacetate assay (DCFH-DA), as previously reported. […] In each experiment, a vehicle control, corresponding to a basal ROS level, were included too. For all the treatments, the mean DCF fluorescence of 50,000 cells was determined by a BD Accuri^TM C6 Software version 1.0.264.21 (BD Biosciences, Milan, Italy).

[11] = 24 h, read-out: IC50 (CL), Mz-ChA-1, 24 h exposure
[12] = 72 h, read-out: IC50 (CL), Mz-ChA-1, 72 h exposure
[13] = read-out: IC50 (CL), Mz-ChA-1, double repeated 2 h exposure + 72 h recovery
[14] = read-out: IC50 (CL), Mz-ChA-1, single 2 h exposure + 72 h recovery
[15] = H69, double repeated 2 h exposure + 72 h recovery
[16] = H69, single 2 h exposure + 72 h recovery
[17] = β-caryophyllene 50 µM, doxorubicin 20 µM

## COc1cccc2c1C(=O)c1c(O)c3c(c(O)c1C2=O)C[C@@](O)(C(=O)CO)C[C@@H]3O[C@H]1C[C@H](N)[C@H](O)[C@H](C)O1 [Doxorubicin, doxorubicin hydrochloride]
[1]; [11]
  IC50: 27.8 µM
[1]; [12]
  IC50: 3.8 µM
[1]; [13]
  IC50: 11.6 µM
[1]; [14]
  IC50: 19.8 µM
[2]
  inhibition of viable cells (CF fluorescence): up to 1.5 fold
[2]; Mz-ChA-1, 24 h
  increase of apoptotic rate vs the basal rate in the control: ~3 fold
[3]; 24 h, H69, 24 h exposure
  IC50: 13.6 µM
[3]; 72 h, H69, 72 h exposure
  IC50: 4 µM
[3]; H69
  IC50 reduction, double short exposure compared the single one: 1.5 fold
  cytotoxicity lowering, double repeated metronomic vs 24 h exposure (IC50): ~3 fold
  cytotoxicity lowering, single metronomic vs 24 h exposure (IC50): ~7 fold
  fold more toxic after 72 h with respect to 24 h (IC50 comparison): about 3 fold
[3]; H69, 10 µM, 24 h
  inhibition of cell viability: about 40%
[3]; H69, 10 µM, 72 h
  fold more toxic than the 24 h protocol: 2 fold
  maximal cytotoxicity: about 80%
[3]; double repeated 2 h exposure
  cytotoxicity: ~70%
[3]; single 2 h exposure
  cytotoxicity: about 60%
[3]; H69, 200 µM, 24 h
  maximum inhibition of cell viability: about 80%
[3]; [15]
  IC50: 54.4 µM
[3]; H69, metronomic schedules
  fold safer than the long-term exposures of 72 h: about 100 fold
  nontoxic up to (concentration): up to 20 μM
[3]; [16]
  IC50: 81.8 µM
[4]; Mz-ChA-1, 2 h
  increase in γH2AX levels compared the control: about 60 fold
[4]; Mz-ChA-1, 24 h
  increase in γH2AX levels compared the control: ~140 fold
[5]; Mz-ChA-1, 2 h
  increase of phospho(Tyr705)-STAT3 compared the control: ~100 fold
[5]; Mz-ChA-1, 24 h
  increase of phospho(Tyr705)-STAT3 compared the control: ~20 fold
[5]; doxorubicin-promoted, Mz-ChA-1 vs H69
  higher phospho(Tyr705)-STAT3 expression in Mz-ChA-1 with respect H69 cholangiocytes: ~10 fold
[6]; H69, 2 h
  increase of γH2AX with respect to control: ~40 fold
[6]; H69, 24 h
  increase of γH2AX with respect to control: ~200 fold
[7]
  Annexin V H69 (semiquantitative apoptosis score): + (11%–30% = +)
[8]; doxorubicin 20 µM
  increase of cell accumulation in S-phase compared the control: ~1.6 fold
  reduction of G0/G1 phase: at least 4 fold
[8]; [17]
  increase in G2/M phase vs. control: about 1.4 fold
[9]
  change in the amount of GSSG: slightly but not significantly reduced
  depletion of GSH: ~2 fold
  lowering of basal GSH/GSSG ratio: ~1.6 fold
[10]; Mz-ChA-1, 2 h
  increase of ROS levels with respect to the control: ~7 fold
[10]; Mz-ChA-1, 24 h
  increase of ROS levels with respect to the control: ~4 fold

## C=C1CC/C=C(\C)CC[C@@H]2[C@@H]1CC2(C)C [β-Caryophyllene, β-caryophyllene]
[1]; [11]
  IC50: 124 µM
[1]; [12]
  IC50: 90 µM
[1]; [13]
  IC50: 140 µM
[1]; [14]
  IC50: 172 µM
[2]
  inhibition of viable cells (CF fluorescence): about 1.2 fold
[2]; Mz-ChA-1, β-caryophyllene 50 µM
  effect on basal apoptosis (annexin-V-Cy3): did not affected the basal apoptosis
[3]; 24 h, H69, 24 h exposure
  IC50: 148 µM
[3]; 72 h, H69, 72 h exposure
  IC50: 146 µM
[3]; H69
  maximum cytotoxicity increase, long-term compared metronomic treatments (IC50): about 1.2 fold
[3]; H69, 50 μM
  reduction of cell viability: lower than 20%
[3]; H69, 125 μM, 24 h and 72 h
  inhibition of cell viability vs. control: about 40%
[3]; H69, 125 μM, metronomic schedules
  effect on cell proliferation: without affecting cell proliferation
[3]; [15]
  IC50: 161 µM
[3]; [16]
  IC50: 177 µM
[4]; Mz-ChA-1, 50 µM, 2 h and 24 h
  effect on γH2AX levels: null effects
[5]; Mz-ChA-1, 2 h
  increase of phospho(Tyr705)-STAT3 compared the control: ≥ 3 fold
[5]; Mz-ChA-1, 24 h
  increase of phospho(Tyr705)-STAT3 compared the control: ≥ 3 fold
[6]; H69, 50 µM, 2 h and 24 h
  effect on γH2AX levels: null effects
[7]
  Annexin V H69 (semiquantitative apoptosis score): – (0%–5% = negative)
[8]; β-caryophyllene 50 µM
  increase in G0/G1 phase vs. control: about 1.2 fold
[8]; [17]
  increase in G2/M phase vs. control: about 1.5 fold
[9]
  change in the amount of GSSG: slightly increased
[9]; β-caryophyllene 50 µM
  basal GSH/GSSG ratio: retained
  enhancement of GSH: ~1.5 fold
[10]; Mz-ChA-1, 2 h
  increase of ROS levels with respect to the control: about 1.6 fold
[10]; Mz-ChA-1, 24 h
  increase of ROS levels with respect to the control: ~1.2 fold
